From US11370798B2 (Vertex Pharmaceuticals Incorporated, priority 2012, dated 2022)

Each compound was assayed on HCT116 colorectal cancer cells (assay: Cisplatin sensitization assay (96 h cell viability MTS)). Settings: compound and Cisplatin added simultaneously, Cisplatin sensitization value.
Type: cell-based
Outline: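 Viability read by MTS (1 h at 37° C) after 96 h co-exposure at 37° C, 5% CO2. Test compound and cisplatin were dosed simultaneously in a full concentration matrix, each 2-fold serially diluted from 10 μM final; sensitization values binned in μM.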
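Further: Test-compound concentration that lowers the Cisplatin IC50 by a set fold.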

Row | Compound | Cisplatin Sensitization Assay
1 | CN1CCCN(C(=O)C2CCN(c3c(F)cncc3NC(=O)c3c(N)nn4cc(F)cnc34)CC2)CC1 [I-G-6, 2-amino-6-fluoro-N-(5-fluoro-4-(4-(4-methyl-1,4-diazepane-1-carbonyl)piperidin-1-yl)pyridin-3-yl)pyrazolo[1,5-a]pyrimidine-3-carboxamide] | +++ (Cisplatin sensitization value of <0.02 μM)
2 | Nc1nn2cc(F)cnc2c1C(=O)Nc1cncc(F)c1N1CCC(C(=O)N2CCN3CCC2CC3)CC1 [I-G-7, N-(4-(4-(1,4-diazabicyclo[3.2.2]nonane-4-carbonyl)piperidin-1-yl)-5-fluoropyridin-3-yl)-2-amino-6-fluoropyrazolo[1,5-a]pyrimidine-3-carboxamide] | +++ (Cisplatin sensitization value of <0.02 μM)
3 | Nc1nn2cc(F)cnc2c1C(=O)Nc1cncc(F)c1N1CCC(C(=O)N2CCC2)CC1 [I-G-8, 2-amino-N-(4-(4-(azetidine-1-carbonyl)piperidin-1-yl)-5-fluoropyridin-3-yl)-6-fluoropyrazolo[1,5-a]pyrimidine-3-carboxamide] | +++ (Cisplatin sensitization value of <0.02 μM)
4 | CCN1CCN(C(=O)C2CCN(c3c(F)cncc3NC(=O)c3c(N)nn4cc(F)cnc34)CC2)CC1 [I-G-9, 2-amino-N-(4-(4-(4-ethylpiperazine-1-carbonyl)piperidin-1-yl)-5-fluoropyridin-3-yl)-6-fluoropyrazolo[1,5-a]pyrimidine-3-carboxamide] | +++ (Cisplatin sensitization value of <0.02 μM)
5 | Nc1nn2cc(F)cnc2c1C(=O)Nc1cncc(F)c1N1CCC(C(=O)N2CCN3CCCC3C2)CC1 (centres unmarked) [I-G-10, 2-amino-6-fluoro-N-(5-fluoro-4-(4-(octahydropyrrolo[1,2-a]pyrazine-2-carbonyl)piperidin-1-yl)pyridin-3-yl)pyrazolo[1,5-a]pyrimidine-3-carboxamide] | +++ (Cisplatin sensitization value of <0.02 μM)
6 | CN(C)[C@@H]1CCN(C(=O)C2CCN(c3c(F)cncc3NC(=O)c3c(N)nn4cc(F)cnc34)CC2)C1 [I-G-11, (R)-2-amino-N-(4-(4-(3-(dimethylamino)pyrrolidine-1-carbonyl)piperidin-1-yl)-5-fluoropyridin-3-yl)-6-fluoropyrazolo[1,5-a]pyrimidine-3-carboxamide] | +++ (Cisplatin sensitization value of <0.02 μM)
7 | Nc1nn2cc(F)cnc2c1C(=O)Nc1cncc(F)c1N1CCC(C(=O)N2CCNCC2)CC1 [I-G-12, 2-amino-6-fluoro-N-(5-fluoro-4-(4-(piperazine-1-carbonyl)piperidin-1-yl)pyridin-3-yl)pyrazolo[1,5-a]pyrimidine-3-carboxamide] | +++ (Cisplatin sensitization value of <0.02 μM)
8 | Nc1nn2cc(F)cnc2c1C(=O)Nc1cncc(F)c1N1CCC(C(=O)N2CCN(C3CC3)CC2)CC1 [I-G-13, 2-amino-N-(4-(4-(4-cyclopropylpiperazine-1-carbonyl)piperidin-1-yl)-5-fluoropyridin-3-yl)-6-fluoropyrazolo[1,5-a]pyrimidine-3-carboxamide] | +++ (Cisplatin sensitization value of <0.02 μM)
9 | Nc1nn2cc(F)cnc2c1C(=O)Nc1cncc(F)c1N1CCC(C(=O)N2CC3(COC3)C2)CC1 [I-G-14, N-(4-(4-(2-oxa-6-azaspiro[3.3]heptane-6-carbonyl)piperidin-1-yl)-5-fluoropyridin-3-yl)-2-amino-6-fluoropyrazolo[1,5-a]pyrimidine-3-carboxamide] | +++ (Cisplatin sensitization value of <0.02 μM)
10 | CN1CCN(C(=O)C2CCN(c3c(F)cncc3NC(=O)c3c(N)nn4cc(F)cnc34)CC2)CC1(C)C [I-G-15, 2-amino-6-fluoro-N-(5-fluoro-4-(4-(3,3,4-trimethylpiperazine-1-carbonyl)piperidin-1-yl)pyridin-3-yl)pyrazolo[1,5-a]pyrimidine-3-carboxamide] | +++ (Cisplatin sensitization value of <0.02 μM)
11 | CN(C)CCCN(C)C(=O)C1CCN(c2c(F)cncc2NC(=O)c2c(N)nn3cc(F)cnc23)CC1 [I-G-16, 2-amino-N-(4-(4-((3-(dimethylamino)propyl)(methyl)carbamoyl)piperidin-1-yl)-5-fluoropyridin-3-yl)-6-fluoropyrazolo[1,5-a]pyrimidine-3-carboxamide] | +++ (Cisplatin sensitization value of <0.02 μM)
12 | CNCCCN(C)C(=O)C1CCN(c2c(F)cncc2NC(=O)c2c(N)nn3cc(F)cnc23)CC1 [I-G-17] | + (Cisplatin sensitization value>0.2 μM but <5 μM)
13 | CN1CC2CN(C(=O)C3CCN(c4c(F)cncc4NC(=O)c4c(N)nn5cc(F)cnc45)CC3)CC2C1 (centres unmarked) [I-G-18, 2-amino-6-fluoro-N-(5-fluoro-4-(4-(5-methyloctahydropyrrolo[3,4-c]pyrrole-2-carbonyl)piperidin-1-yl)pyridin-3-yl)pyrazolo[1,5-a]pyrimidine-3-carboxamide] | +++ (Cisplatin sensitization value of <0.02 μM)
14 | CC(C)(C)NC(=O)C1CCN(c2c(F)cncc2NC(=O)c2c(N)nn3cc(F)cnc23)CC1 [I-G-19, 2-amino-N-(4-(4-(tert-butylcarbamoyl)piperidin-1-yl)-5-fluoropyridin-3-yl)-6-fluoropyrazolo[1,5-a]pyrimidine-3-carboxamide] | ++ (Cisplatin sensitization value>0.02 μM but <0.2 μM)
15 | CN1CCC(NC(=O)C2CCN(c3c(F)cncc3NC(=O)c3c(N)nn4cc(F)cnc34)CC2)CC1 [I-G-20, 2-amino-6-fluoro-N-(5-fluoro-4-(4-((1-methylpiperidin-4-yl)carbamoyl)piperidin-1-yl)pyridin-3-yl)pyrazolo[1,5-a]pyrimidine-3-carboxamide] | + (Cisplatin sensitization value>0.2 μM but <5 μM)
16 | COC1CN(C(=O)C2CCN(c3c(F)cncc3NC(=O)c3c(N)nn4cc(F)cnc34)CC2)C1 [I-G-21, 2-amino-6-fluoro-N-(5-fluoro-4-(4-(3-methoxyazetidine-1-carbonyl)piperidin-1-yl)pyridin-3-yl)pyrazolo[1,5-a]pyrimidine-3-carboxamide] | +++ (Cisplatin sensitization value of <0.02 μM)
17 | CN(C)C1CN(C(=O)C2CCN(c3c(F)cncc3NC(=O)c3c(N)nn4cc(F)cnc34)CC2)C1 [I-G-22, 2-amino-N-(4-(4-(3-(dimethylamino)azetidine-1-carbonyl)piperidin-1-yl)-5-fluoropyridin-3-yl)-6-fluoropyrazolo[1,5-a]pyrimidine-3-carboxamide] | +++ (Cisplatin sensitization value of <0.02 μM)
18 | CN1CC(NC(=O)C2CCN(c3c(F)cncc3NC(=O)c3c(N)nn4cc(F)cnc34)CC2)C1 [I-G-23, 2-amino-6-fluoro-N-(5-fluoro-4-(4-((1-methylazetidin-3-yl)carbamoyl)piperidin-1-yl)pyridin-3-yl)pyrazolo[1,5-a]pyrimidine-3-carboxamide] | +++ (Cisplatin sensitization value of <0.02 μM)
19 | CN1CCC(NC(=O)C2CCN(c3c(F)cncc3NC(=O)c3c(N)nn4cc(F)cnc34)CC2)C1 (centres unmarked) [I-G-24, 2-amino-6-fluoro-N-(5-fluoro-4-(4-((1-methylpyrrolidin-3-yl)carbamoyl)piperidin-1-yl)pyridin-3-yl)pyrazolo[1,5-a]pyrimidine-3-carboxamide] | +++ (Cisplatin sensitization value of <0.02 μM)
20 | CN1CCN(C(=O)C2(C#N)CCN(c3c(F)cncc3NC(=O)c3c(N)nn4cc(F)cnc34)CC2)CC1 [I-G-25, 2-amino-N-(4-(4-cyano-4-(4-methylpiperazine-1-carbonyl)piperidin-1-yl)-5-fluoropyridin-3-yl)-6-fluoropyrazolo[1,5-a]pyrimidine-3-carboxamide] | +++ (Cisplatin sensitization value of <0.02 μM)
21 | CN(C)CCCNC(=O)C1CCN(c2c(F)cncc2NC(=O)c2c(N)nn3cc(F)cnc23)CC1 [I-G-26, 2-amino-N-(4-(4-((3-(dimethylamino)propyl)carbamoyl)piperidin-1-yl)-5-fluoropyridin-3-yl)-6-fluoropyrazolo[1,5-a]pyrimidine-3-carboxamide] | ++ (Cisplatin sensitization value>0.02 μM but <0.2 μM)
22 | CC1(C)CN(C(=O)C2CCN(c3c(F)cncc3NC(=O)c3c(N)nn4cc(F)cnc34)CC2)CCN1 [I-G-27, 2-amino-N-(4-(4-(3,3-dimethylpiperazine-1-carbonyl)piperidin-1-yl)-5-fluoropyridin-3-yl)-6-fluoropyrazolo[1,5-a]pyrimidine-3-carboxamide] | ++ (Cisplatin sensitization value>0.02 μM but <0.2 μM)
23 | Nc1nn2cc(F)cnc2c1C(=O)Nc1cncc(F)c1N1CCC(C(=O)N2CCNC3(CC3)C2)CC1 [I-G-28, N-(4-(4-(4,7-diazaspiro[2.5]octane-7-carbonyl)piperidin-1-yl)-5-fluoropyridin-3-yl)-2-amino-6-fluoropyrazolo[1,5-a]pyrimidine-3-carboxamide] | +++ (Cisplatin sensitization value of <0.02 μM)
24 | CN(C)C(=O)C1CCN(c2c(F)cncc2NC(=O)c2c(N)nn3cc(F)cnc23)CC1 [I-G-29, 2-amino-N-(4-(4-(dimethylcarbamoyl)piperidin-1-yl)-5-fluoropyridin-3-yl)-6-fluoropyrazolo[1,5-a]pyrimidine-3-carboxamide] | +++ (Cisplatin sensitization value of <0.02 μM)
25 | CN(C)CCNC(=O)C1CCN(c2c(F)cncc2NC(=O)c2c(N)nn3cc(F)cnc23)CC1 [I-G-30, 2-amino-N-(4-(4-((2-(dimethylamino)ethyl)carbamoyl)piperidin-1-yl)-5-fluoropyridin-3-yl)-6-fluoropyrazolo[1,5-a]pyrimidine-3-carboxamide] | +++ (Cisplatin sensitization value of <0.02 μM)
26 | CN(C)CCN(C)C(=O)C1CCN(c2c(F)cncc2NC(=O)c2c(N)nn3cc(F)cnc23)CC1 [I-G-31, 2-amino-N-(4-(4-((2-(dimethylamino)ethyl)(methyl)carbamoyl)piperidin-1-yl)-5-fluoropyridin-3-yl)-6-fluoropyrazolo[1,5-a]pyrimidine-3-carboxamide] | +++ (Cisplatin sensitization value of <0.02 μM)
